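Compound exposure: 48 hours, 5 concentrations, 96-well plates. At the TGI there is no net growth.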
Legend:
Experiment in all cases: DTP human tumour cell line panel, 48 h
[1] = tested on: BT-549 breast
[2] = tested on: CAKI-1 renal
[3] = tested on: HT29 colon
[4] = tested on: KM12 colon
[5] = tested on: LOX IMVI melanoma
[6] = tested on: MDA-N
[7] = tested on: NCI-H522 lung
[8] = tested on: NCI/ADR-RES ovarian
[9] = tested on: OVCAR-3 ovarian
[10] = tested on: OVCAR-5 ovarian
[11] = tested on: SF-539 CNS
[12] = tested on: SK-MEL-28 melanoma
[13] = tested on: SK-MEL-5 melanoma
[14] = tested on: SK-OV-3 ovarian
[15] = tested on: SN12C renal
[16] = tested on: SNB-75 CNS
[17] = tested on: UACC-257 melanoma
[18] = tested on: COLO 205 colon
[19] = tested on: EKVX NSCLC
[20] = tested on: HOP-92 NSCLC

Compound | TGI [1] [µM] | TGI [2] [µM] | TGI [3] [µM] | TGI [4] [µM] | TGI [5] [µM] | TGI [6] [µM] | TGI [7] [µM] | TGI [8] [µM] | TGI [9] [µM] | TGI [10] [µM] | TGI [11] [µM] | TGI [12] [µM] | TGI [13] [µM] | TGI [14] [µM] | TGI [15] [µM] | TGI [16] [µM] | TGI [17] [µM] | TGI [18] [µM] | TGI [19] [µM] | TGI [20] [µM]
COc1ccc(-c2c(C#N)c(S)n(C3OC(CO)C(O)C(O)C3O)c(=O)c2C#N)cc1 (stereo unspecified) | > 100 | > 100 | > 100 | > 100 | > 100 | > 100 | > 100 | > 100 | > 100 | > 100 | > 100 | > 100 | > 100 | > 100 | > 100 | > 100 | > 100 | – | – | –
CN(C)C(=C1c2cc([N+](=O)[O-])ccc2-c2ccc([N+](=O)[O-])cc21)N(C)C | > 100 | > 100 | > 100 | > 100 | – | > 100 | > 100 | > 100 | > 100 | > 100 | – | > 100 | > 100 | > 100 | > 100 | > 100 | > 100 | > 100 | > 100 | –
Nc1nnc(-c2ccco2)c(-c2ccco2)n1 | > 100 | > 100 | > 100 | > 100 | – | > 100 | > 100 | > 100 | > 100 | > 100 | > 100 | > 100 | > 100 | > 100 | > 100 | > 100 | > 100 | > 100 | > 100 | > 100
CCOC(=O)COc1ccc(/C=C/C(=O)c2ccc(OC)cc2)cc1 | > 100 | – | 64.9 | > 100 | 39.4 | 75.1 | 73.6 | > 100 | > 100 | > 100 | 41.5 | 58.4 | – | – | 39.6 | > 100 | 57.3 | > 100 | > 100 | 48.2
COc1cc(/C=C/C2=NN(c3cccc(S(=O)(=O)O)c3)C3(C2)C(Cl)C(=O)N3c2nc3ccccc3s2)ccc1O (stereo unspecified) | 29.1 | 33 | 40.8 | 41.2 | 27.5 | 60.3 | 30.4 | 99.4 | – | 37.9 | 46 | 76.6 | 85.2 | – | 47.5 | 60 | 42.6 | 40.4 | 42.3 | 29.7
NC(N)=NC(N)=Nc1c(F)c(F)c(F)c(F)c1F | > 100 | > 100 | > 100 | > 100 | – | > 100 | > 100 | > 100 | > 100 | > 100 | > 100 | > 100 | > 100 | > 100 | > 100 | > 100 | > 100 | > 100 | > 100 | > 100
Cc1cc(C)c(C)c(-n2[nH]c(=O)n(C)c2=O)c1C | > 100 | > 100 | > 100 | > 100 | > 100 | > 100 | – | > 100 | > 100 | > 100 | > 100 | > 100 | > 100 | > 100 | > 100 | – | > 100 | > 100 | > 100 | > 100
O=[N+]([O-])c1ccc(N=NN2CCCC2)cc1 | > 100 | > 100 | – | > 100 | > 100 | > 100 | > 100 | > 100 | > 100 | > 100 | > 100 | – | > 100 | > 100 | > 100 | > 100 | > 100 | > 100 | > 100 | > 100
CC(=O)Nc1ccc(N2C(=O)/C(=C\c3cccc(Oc4ccccc4)c3)SC2c2ccccc2)cc1 (stereo unspecified) | > 100 | > 100 | – | 90.5 | 34.3 | 42.3 | 58.4 | > 100 | > 100 | > 100 | 33.4 | 76.1 | 68.6 | > 100 | 97 | – | > 100 | > 100 | > 100 | 40.2
CC1CC/C(=C\c2ccc(N(C)C)cc2)C(=O)/C1=C/c1ccc(N(C)C)cc1 (stereo unspecified) | > 100 | > 100 | > 100 | > 100 | > 100 | > 100 | > 100 | > 100 | > 100 | > 100 | > 100 | > 100 | > 100 | > 100 | > 100 | > 100 | > 100 | > 100 | > 100 | –
Cc1ccc(-c2n[nH]c(=O)[nH]2)cc1 | > 100 | > 100 | > 100 | > 100 | > 100 | > 100 | > 100 | > 100 | > 100 | > 100 | > 100 | > 100 | > 100 | – | > 100 | > 100 | 98.7 | > 100 | > 100 | > 46.4
N#Cc1c2c([nH]c(=O)c1C#N)CCCC2 | > 100 | > 100 | > 100 | > 100 | > 100 | > 100 | – | > 100 | > 100 | > 100 | > 100 | > 100 | > 100 | > 100 | > 100 | > 100 | > 100 | > 100 | > 100 | > 100
COC1OC(COC(=O)NCCCCC(=O)C(F)(F)F)C(O)C(O)C1O (stereo unspecified) | > 100 | > 100 | > 100 | > 100 | > 100 | > 100 | – | > 100 | > 100 | > 100 | > 100 | > 100 | > 100 | > 100 | > 100 | > 100 | > 100 | > 100 | – | > 100
